Experimental data published in patent US8247211B2, “Glycopeptide antibiotics” (American Cyanamid Company, priority 2001, dated 2012).
Converted amounts (≈) assume the structure as drawn.

Columns and labels:
[1] = system: Enterococcus sp.; experiment: In vitro antibacterial evaluation: minimum inhibitory concentration (MIC), broth dilution method; type: cell-based; settings: 18 hours at 35° C.
How it was run: (§1)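 MIC read as lowest drug level preventing visible growth. Organisms at 5×10^5 CFU/mL were exposed to a 64-0.06 μg/mL dilution series in Muller-Hinton II […] following NCCLS broth dilution standard M7-A2.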

[2] = system: Streptococcus sp.; experiment: as above; type: cell-based; settings: 18 hours at 35° C.
How it was run: as §1

[3] = system: Escherichia coli; experiment: as above; type: cell-based; settings: 18 hours at 35° C.
How it was run: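 Susceptibility determined by NCCLS-recommended broth dilution (M7-A2), Muller-Hinton II […]. Concentration span 64-0.06 μg/mL, inoculum 5×10^5 CFU/mL. Isolates include strains resistant to methicillin, penicillin and/or vancomycin.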

[4] = system: Staphylococcus sp.; experiment: as above; type: cell-based
How it was run: as §1

[5] = type: in vivo; settings: mice, 20 mg/kg intravenously daily for 9 days, serum on day 10
Experimental: 20-day-old CD-1 mice were divided into a vehicle control group (5 mice) and a treatment group (5 mice). Samples of glycopeptide antibiotics were administered at 20 mg/kg intravenously daily for 9 days. Animals were necropsied on day 10 Sera were analyzed for BUN (blood urea nitrogen), creatinine, AST (aspartic aminotransferase), and ALT (alanine aminotransferase) by routine, standard, automated methods using an Hitachi 747 chemistry analyzer.

[6] = Anatomic pathology (heart and kidney histopathology) in mice; type: in vivo, CD-1 mice; settings: 20 mg/kg intravenously daily for 9 days, microscopic histopathology on day 10
How it was run: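 Histopathology on H&E-stained, paraffin-embedded sections, subjectively scored (slight, mild, moderate, marked, severe) relative to untreated controls. Dosing: glycopeptide antibiotics 20 mg/kg intravenously once daily ×9 days in 20-day-old CD-1 mice, n=5 per group including vehicle.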

[7] = system: Staphylococcus aureus-SMITH (GC 4543); experiment: Acute lethal infection in mice (ED50); type: in vivo; settings: female CD-1 mice, intraperitoneal challenge, intravenous dose 30 min. after infection, 7 day survival ratios
How it was run: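 ED50 derived from pooled 7-day survival in three separate experiments, five mice per dose level. Single intravenous dose 30 min after intraperitoneal infection of female CD-1 mice with enough bacteria to kill untreated animals in 24-48 h.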

[8] = broth dilution, inoculum 5×10^5 CFU/mL

Structure (SMILES): N=C1NCC(C(O)C2NC(=O)C(Cc3ccc(OC4OC(CO)C(OC5OC6COC7(OC6C(O)C5O)C5CC6CC(C5)CC7C6)C(O)C4O)cc3)NC(=O)C(Cc3ccccc3)NC(=O)CNC(=O)C(CO)NC(=O)C(C(O)C3CNC(=N)N3C3OC(CO)C(O)C(O)C3O)NC2=O)N1 (centres unmarked) [Example 220]
- MIC Enterococcus avium (GC 4558) ([1]; Enterococcus avium (GC 4558)): 2 µg/mL (≈ 1.41 µM)
- MIC Enterococcus faecalis (ATCC 29212) ([1]; Enterococcus faecalis (ATCC 29212)): 2 µg/mL (≈ 1.41 µM)
- MIC Enterococcus faecalis (GC 2242) ([1]; Enterococcus faecalis (GC 2242)): 1 µg/mL (≈ 0.707 µM)
- MIC Enterococcus faecalis (GC 2691) ([1]; Enterococcus faecalis (GC 2691)): 2 µg/mL (≈ 1.41 µM)
- MIC Enterococcus faecalis (GC 3059) ([1]; Enterococcus faecalis (GC 3059)): 2 µg/mL (≈ 1.41 µM)
- MIC Enterococcus faecalis (GC 4552) ([1]; Enterococcus faecalis (GC 4552)): 2 µg/mL (≈ 1.41 µM)
- MIC Enterococcus faecalis (GC 4553) ([1]; Enterococcus faecalis (GC 4553)): 1 µg/mL (≈ 0.707 µM)
- MIC Enterococcus faecalis (GC 4554) ([1]; Enterococcus faecalis (GC 4554)): 2 µg/mL (≈ 1.41 µM)
- MIC Enterococcus faecalis (GC 6189) ([1]; Enterococcus faecalis (GC 6189)): 1 µg/mL (≈ 0.707 µM)
- MIC Enterococcus faecium (GC 2243) ([1]; Enterococcus faecium (GC 2243)): 1 µg/mL (≈ 0.707 µM)
- MIC Enterococcus faecium (GC 4556) ([1]; Enterococcus faecium (GC 4556)): 1 µg/mL (≈ 0.707 µM)
- MIC Enterococcus faecium (GC 4557) ([1]; Enterococcus faecium (GC 4557)): 1 µg/mL (≈ 0.707 µM)
- MIC Enterococcus avium (GC 4558) [1, 8]: 2 µg/mL (≈ 1.41 µM)
- MIC Enterococcus faecalis (ATCC 29212) [1, 8]: 2 µg/mL (≈ 1.41 µM)
- MIC Enterococcus faecalis (GC 2242) [1, 8]: 1 µg/mL (≈ 0.707 µM)
- MIC Enterococcus faecalis (GC 2691) [1, 8]: 2 µg/mL (≈ 1.41 µM)
- MIC Enterococcus faecalis (GC 3059) [1, 8]: 2 µg/mL (≈ 1.41 µM)
- MIC Enterococcus faecalis (GC 4552) [1, 8]: 2 µg/mL (≈ 1.41 µM)
- MIC Enterococcus faecalis (GC 4553) [1, 8]: 1 µg/mL (≈ 0.707 µM)
- MIC Enterococcus faecalis (GC 4554) [1, 8]: 2 µg/mL (≈ 1.41 µM)
- MIC Enterococcus faecalis (GC 6189) [1, 8]: 1 µg/mL (≈ 0.707 µM)
- MIC Enterococcus faecium (GC 2243) [1, 8]: 1 µg/mL (≈ 0.707 µM)
- MIC Enterococcus faecium (GC 4556) [1, 8]: 1 µg/mL (≈ 0.707 µM)
- MIC Enterococcus faecium (GC 4557) [1, 8]: 1 µg/mL (≈ 0.707 µM)
- MIC Streptococcus agalactiae (GC 4564) ([2]; Streptococcus agalactiae (GC 4564)): <0.06 µg/mL
- MIC Streptococcus pneumoniae (ATCC 6301) ([2]; Streptococcus pneumoniae (ATCC 6301)): <0.06 µg/mL
- MIC Streptococcus pneumoniae (GC 1894) ([2]; Streptococcus pneumoniae (GC 1894)): <0.06 µg/mL
- MIC Streptococcus pneumoniae (GC 4565) ([2]; Streptococcus pneumoniae (GC 4565)): <0.06 µg/mL
- MIC Streptococcus pyogenes (GC 4563) ([2]; Streptococcus pyogenes (GC 4563)): <0.06 µg/mL
- MIC Streptococcus agalactiae (GC 4564) [2, 8]: <0.06 µg/mL
- MIC Streptococcus pneumoniae (ATCC 6301) [2, 8]: <0.06 µg/mL
- MIC Streptococcus pneumoniae (GC 1894) [2, 8]: <0.06 µg/mL
- MIC Streptococcus pneumoniae (GC 4565) [2, 8]: <0.06 µg/mL
- MIC Streptococcus pyogenes (GC 4563) [2, 8]: <0.06 µg/mL
- MIC Escherichia coli (ATCC 25922) ([3]; Escherichia coli (ATCC 25922)): 32 µg/mL (≈ 22.6 µM)
- MIC Escherichia coli (GC 4559) ([3]; Escherichia coli (GC 4559)): 16 µg/mL (≈ 11.3 µM)
- MIC Escherichia coli (GC 4560) ([3]; Escherichia coli (GC 4560)): 0.5 µg/mL (≈ 0.354 µM)
- MIC Staphylococcus aureus (ATCC 29213) ([4]; strain ATCC 29213): 0.5 µg/mL (≈ 0.354 µM)
- MIC Staphylococcus aureus (GC 1131) ([4]; strain GC 1131): 1 µg/mL (≈ 0.707 µM)
- MIC Staphylococcus aureus (GC 3051) ([4]; strain GC 3051): 1 µg/mL (≈ 0.707 µM)
- MIC Staphylococcus aureus (GC 3053) ([4]; strain GC 3053): 1 µg/mL (≈ 0.707 µM)
- MIC Staphylococcus aureus (GC 4541) ([4]; strain GC 4541): 1 µg/mL (≈ 0.707 µM)
- MIC Staphylococcus aureus (GC 4542) ([4]; strain GC 4542): 0.5 µg/mL (≈ 0.354 µM)
- MIC Staphylococcus aureus-SMITH (GC 4543) ([4]; strain GC 4543): 1 µg/mL (≈ 0.707 µM)
- MIC Staphylococcus aureus (GC 4544) ([4]; strain GC 4544): 1 µg/mL (≈ 0.707 µM)
- MIC Staphylococcus aureus (GC 4545) ([4]; strain GC 4545): 0.5 µg/mL (≈ 0.354 µM)
- MIC Staphylococcus haemolyticus (GC 4546) ([4]; strain GC 4546): 0.25 µg/mL (≈ 0.177 µM)
- MIC Coagulase Negative Staphylococcus (GC 4547) ([4]; strain GC 4547): 0.5 µg/mL (≈ 0.354 µM)
- MIC Coagulase Negative Staphylococcus (GC 4548) ([4]; strain GC 4548): 0.25 µg/mL (≈ 0.177 µM)
- MIC Coagulase Negative Staphylococcus (GC 4549) ([4]; strain GC 4549): 0.25 µg/mL (≈ 0.177 µM)
- MIC Coagulase Negative Staphylococcus (GC 4551) ([4]; strain GC 4551): 0.5 µg/mL (≈ 0.354 µM)
- Clinical Chemistry (Day 10) % of Control, BUN [5]: 149%
- Clinical Chemistry (Day 10) % of Control, Creatinine [5]: 121%
- Anatomical Pathology (Day 10), Heart [6]: 0
- Anatomical Pathology (Day 10), Kidney [6]: +++
- median effective dose (ED50), Staphylococcus aureus-SMITH (GC 4543) [7]: 0.19 mg/kg
